# Measurements from the supplement of paper PMC6045584.
# ± gives the standard deviation of the averaged measurements.
# Tests used:
# LAPATINIB = compound: CS(=O)(=O)CCNCc1ccc(-c2ccc3ncnc(Nc4ccc(OCc5cccc(F)c5)c(Cl)c4)c3c2)o1 [LAPATINIB]; test: surviving fraction relative to DMSO-only wells; higher = less growth inhibition; settings: exposure time: 5 days
# How it was run: (§1)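 After seeding at 250–500 cells per well in 384-well plates and a 24-hour wait, log-phase tumour cell lines were exposed without interruption for five days to inhibitors at 0.5, 1, 5, 10, 50, 100, 500 and 1000 nM. CellTiter-Glo luminescence was recorded after 10 minutes at room temperature. Viability is reported as surviving fraction, the luminescence normalised to the median of DMSO-only wells.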
# DECITABINE = compound: Nc1ncn([C@H]2C[C@H](O)[C@@H](CO)O2)c(=O)n1 [DECITABINE]; test: as above; settings: exposure time: 5 days
# How it was run: as §1
Test System,surviving fraction (LAPATINIB; 0.5 nM),surviving fraction (LAPATINIB; 1 nM),surviving fraction (LAPATINIB; 5 nM),surviving fraction (LAPATINIB; 10 nM),surviving fraction (LAPATINIB; 50 nM),surviving fraction (LAPATINIB; 100 nM),surviving fraction (LAPATINIB; 500 nM),surviving fraction (LAPATINIB; 1000 nM),surviving fraction (DECITABINE; 0.5 nM),surviving fraction (DECITABINE; 1 nM),surviving fraction (DECITABINE; 5 nM),surviving fraction (DECITABINE; 10 nM),surviving fraction (DECITABINE; 50 nM),surviving fraction (DECITABINE; 100 nM),surviving fraction (DECITABINE; 500 nM),surviving fraction (DECITABINE; 1000 nM)
HCC1395 BREAST,0.928 ± 0.083,0.972 ± 0.072,0.998 ± 0.082,0.975 ± 0.16,0.919 ± 0.12,1.09 ± 0.061,1.02 ± 0.083,0.993 ± 0.15,1.19 ± 0.054,0.956 ± 0.1,1.34 ± 0.079,1.23 ± 0.072,1.26 ± 0.045,1.25 ± 0.086,1.17 ± 0.073,1.09 ± 0.031
HCC1806 BREAST,1.01 ± 0.083,1.12 ± 0.028,1.09 ± 0.04,1.09 ± 0.079,0.992 ± 0.018,1.11 ± 0.033,0.715 ± 0.025,0.65 ± 0.082,0.937 ± 0.083,0.698 ± 0.11,0.531 ± 0.02,0.483 ± 0.031,0.256 ± 0.039,0.159 ± 0.0035,0.083 ± 0.012,0.0507 ± 0.008
HCC1954 BREAST,0.905 ± 0.087,1.08 ± 0.058,1.04 ± 0.023,1.01 ± 0.12,0.823 ± 0.037,0.804 ± 0.092,0.387 ± 0.016,0.387 ± 0.039,1.07 ± 0.19,1.05 ± 0.13,1.32 ± 0.13,1.32 ± 0.05,1.13 ± 0.13,1.22 ± 0.023,1.29 ± 0.044,1.08 ± 0.044
HCT15 LARGE INTESTINE,1.01 ± 0.082,1.12 ± 0.098,1.04 ± 0.059,1.06 ± 0.076,0.988 ± 0.078,1.08 ± 0.07,1.04 ± 0.032,1.05 ± 0.071,1 ± 0.02,0.982 ± 0.056,0.967 ± 0.021,0.961 ± 0.017,1.05 ± 0.032,0.987 ± 0.032,0.835 ± 0.026,0.893 ± 0.032
HELA CERVIX,1.08 ± 0.1,1.23 ± 0.065,1.05 ± 0.043,1.04 ± 0.038,1.1 ± 0.029,1.15 ± 0.12,1.16 ± 0.09,1.16 ± 0.037,1.03 ± 0.043,0.9852 ± 0.0096,1.05 ± 0.043,1 ± 0.017,1.1 ± 0.03,1.08 ± 0.017,1.15 ± 0.065,0.944 ± 0.032
HOS BONE,1.017 ± 0.01,1.082 ± 0.01,1.059 ± 0.01,1.03 ± 0.011,1.05 ± 0.023,1.05 ± 0.034,1.039 ± 0.0051,1.04 ± 0.018,1.01 ± 0.039,1.02 ± 0.018,1.03 ± 0.031,0.995 ± 0.011,1.06 ± 0.015,1.02 ± 0.015,0.8753 ± 0.0038,0.731 ± 0.029
HOSMNG BONE,0.92 ± 0.06,1.04 ± 0.05,0.88 ± 0.081,0.827 ± 0.12,0.848 ± 0.064,0.867 ± 0.11,0.89 ± 0.084,1.06 ± 0.08,1.04 ± 0.043,1.03 ± 0.057,1.02 ± 0.061,1.02 ± 0.072,1.1 ± 0.036,1.12 ± 0.086,1.1 ± 0.12,1.11 ± 0.046
HSSYII SYNOVIAL,0.98 ± 0.042,0.943 ± 0.022,0.947 ± 0.051,0.973 ± 0.033,0.947 ± 0.064,1.04 ± 0.087,0.969 ± 0.034,0.927 ± 0.01,0.972 ± 0.032,1.01 ± 0.046,0.933 ± 0.048,0.938 ± 0.073,0.86 ± 0.049,0.696 ± 0.024,0.48 ± 0.012,0.348 ± 0.036
HT1080 SOFT TISSUE,0.997 ± 0.044,1.06 ± 0.013,1.02 ± 0.017,1.05 ± 0.016,1.04 ± 0.016,1.02 ± 0.048,1.01 ± 0.021,1.05 ± 0.076,1.1 ± 0.043,1.08 ± 0.042,1.07 ± 0.024,1.1 ± 0.058,0.964 ± 0.026,0.928 ± 0.083,0.665 ± 0.06,0.627 ± 0.016
HU09 BONE,0.937 ± 0.082,0.937 ± 0.031,1.04 ± 0.1,1.04 ± 0.089,1 ± 0.056,1.04 ± 0.13,0.891 ± 0.043,0.798 ± 0.021,0.982 ± 0.083,0.968 ± 0.081,1.12 ± 0.13,0.997 ± 0.072,1.17 ± 0.13,1.04 ± 0.027,0.95 ± 0.084,0.847 ± 0.034
